Values of other authors, collected in publication PMC3865603 (Cancer chemotherapy and pharmacology, 2011).

Assays:
[1] = tested on: patients; details: cited from earlier work
[2] = tested on: tubulin in PBMCs; details: ixabepilone RP2D 40 mg/m^2, 1 h after infusion, n = 27; cited from earlier work
[3] = cited from earlier work

Structure (SMILES): C/C(=C\c1csc(C)n1)[C@@H]1C[C@@H]2O[C@]2(C)CCC[C@H](C)[C@H](O)[C@@H](C)C(=O)C(C)(C)[C@@H](O)CC(=O)N1 [Ixabepilone, ixabepilone]
- DLTs [1]: neutropenia, neuropathy, and abdominal pain/nausea
- mean MBF [2]: 63%

Structure (SMILES): C/C1=C/C[C@@H](/C(C)=C/c2csc(C)n2)OC(=O)C[C@H](O)C(C)(C)C(=O)[C@H](C)[C@@H](O)[C@@H](C)CCC1 [KOS-862, Desoxyepothilone B]
- neurotoxicity in phase II trials [1]: significant neurotoxicity
- in vivo activity relative to other epothilones [3]: greater activity compared with ixabepilone and patupilone

Structure (SMILES): C/C(=C\c1csc(C)n1)[C@@H]1C[C@@H]2O[C@]2(C)CCC[C@H](C)[C@H](O)[C@@H](C)C(=O)C(C)(C)[C@@H](O)CC(=O)O1 [patupilone]
- DLTs [1]: diarrhea, peripheral neuropathy, and fatigue

Structure (SMILES): C=CC[C@H]1C(=O)C(C)(C)[C@@H](O)CC(=O)O[C@H](c2ccc3sc(C)nc3c2)C[C@@H]2O[C@]2(C)CCC[C@H](C)[C@@H]1O [sagopilone]
- DLTs [1]: peripheral neuropathy, infection, hyponatremia, diarrhea, and central ataxia
